In patent publication US7803930B2, “Antisense modulation of apolipoprotein B-expression” (Isis Pharmaceuticals, Inc., priority 2002, dated 2010):
In the oligonucleotide strings, read from the 5' end, every base follows the letter of its sugar. An asterisk marks phosphorothioate; unmarked linkages are phosphodiester. Other units and linkages are bracketed, terminal groups are in braces. A string of capitals states the bases alone. e = 2'-O-(2-methoxyethyl) (MOE); [5mC] = 5-methylcytosine; d = 2'-deoxy (DNA)

Tests used:
apolipoprotein B protein = assay: Apolipoprotein B protein secreted from primary Cynomolgous monkey hepatocytes, ELISA; format: cell-based; conditions: for secretion of apolipoprotein B protein (ELISA) / % Reduction of monkey apolipoprotein B protein secretion: primary Cynomolgous hepatocytes; for % Reduction in secreted apolipoprotein B protein: primary Cynomolgous monkey hepatocytes;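 on % Reduction in secreted apolipoprotein B protein: normalized to untreated control cells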
Method in brief: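 Primary cynomolgus hepatocytes treated with oligonucleotide at 150 and 300 nM, or 50 and 150 nM for some compounds; secreted apoB protein quantified by apoB-specific ELISA. Values are means of 3 experiments.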

[1] = Time course at two doses in female C57BL/6 mice (Example 49): AST and ALT levels; format: in vivo, mouse; conditions: for AST and ALT levels: 25 or 50 mg/kg (either dose) i.p. twice a week, after 2 weeks; for AST and ALT levels over saline treated animals: after 4 weeks
Protocol: Female C57BL/6 mice were divided into two groups—one group receiving oligonucleotide treatment and control animals receiving saline treatment. After overnight fasting, mice were dosed intraperitoneally twice a week with saline or 25 mg/kg or 50 mg/kg of ISIS 281625 (SEQ ID NO: 224), ISIS 301012 (SEQ ID NO: 247), or ISIS 301027 (SEQ ID NO: 262). After 2 weeks, a blood sample was taken from the tail of the mice and evaluated for liver enzyme. After 4 weeks, and study termination, animals were sacrificed and evaluated for liver enzyme levels.

[2] = tested on: Cynomolgous monkey apolipoprotein B mRNA; assay: Apolipoprotein B mRNA in primary Cynomolgous monkey hepatocytes, real-time PCR; format: cell-based; conditions: for inhibition of apolipoprotein B mRNA expression: 10, 50, 150 or 300 nM; for % Inhibition of apolipoprotein B mRNA: primary Cynomolgous monkey hepatocytes
Method in brief: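 Primary cynomolgus hepatocytes treated with antisense oligonucleotides at 10, 50, 150 or 300 nM (some sets 10–150 nM) for 24 or 48 h, depending on the set. mRNA quantified by real-time PCR using human apoB and GAPDH primers/probes. Values are percent inhibition normalized to untreated cells, averaged over 2–6 experiments.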

[3] = tested on: human apolipoprotein(a) mRNA; assay: Apolipoprotein(a) mRNA expression in primary human hepatocytes, real-time PCR; format: cell-based; conditions: 24 hours; for expression of apolipoprotein(a) mRNA: human primary hepatocytes, 5, 10, 50 or 150 nM; for % Change in apolipoprotein(a) mRNA expression following antisense inhibition of apolipoprotein B: primary human hepatocytes
[4] = 25 mg/kg i.p. twice a week, 2 weeks
[5] = 25 mg/kg i.p. twice a week, 4 weeks
[6] = 50 mg/kg i.p. twice a week, 2 weeks
[7] = 50 mg/kg i.p. twice a week, 4 weeks

Substance | AST and ALT levels [1] | AST and ALT levels over saline treated animals ([1]; higher dose (50 mg/kg)) | AST and ALT levels over saline treated animals ([1]; lower dose (25 mg/kg)) | expression of apolipoprotein(a) mRNA [3] | ALT [1, 4] | AST [1, 4] | ALT [1, 5] | AST [1, 5] | ALT [1, 6] | AST [1, 6] | ALT [1, 7] | AST [1, 7] | % Change in apolipoprotein(a) mRNA expression following antisense inhibition of apolipoprotein B ([3]; 5 nM) | % Change in apolipoprotein(a) mRNA expression following antisense inhibition of apolipoprotein B ([3]; 10 nM) | % Change in apolipoprotein(a) mRNA expression following antisense inhibition of apolipoprotein B ([3]; 50 nM) | % Change in apolipoprotein(a) mRNA expression following antisense inhibition of apolipoprotein B ([3]; 150 nM) | also measured
ISIS 281625: SEQ ID NO: 224, 2′-MOE gapmer targeted to human apolipoprotein B (antisense eA*eG*eG*eT*eT*dA*d[5mC]*d[5mC]*dA*dG*d[5mC]*d[5mC]*dA*d[5mC]*dA*eT*eG*e[5mC]*eA*eG) | remained close to those of saline | large increase | moderate increase | decreased | – | – | – | – | – | – | – | – | – | – | – | – | secretion of apolipoprotein B protein (ELISA) (apolipoprotein B protein; 50 and 150 nM (statement after Table 49)): decrease; inhibition of apolipoprotein B mRNA expression ([2]; Cynomolgous monkey primary hepatocytes, 24 hours): in a dose-dependent manner
301012 (eG*e[5mC]*e[5mC]*eT*e[5mC]*dA*dG*dT*d[5mC]*dT*dG*d[5mC]*dT*dT*d[5mC]*eG*e[5mC]*eA*e[5mC]*e[5mC]) [compound 301012] | – | – | – | – | 22.4 IU/L | 37.2 IU/L | 24.8 IU/L | 89.8 IU/L | 23.2 IU/L | 38.4 IU/L | 29.2 IU/L | 107.4 IU/L | +34% | +86% | +30% | +38% | % Reduction in secreted apolipoprotein B protein (apolipoprotein B protein; 150 nM, 24 hours): 31%; % Reduction in secreted apolipoprotein B protein (apolipoprotein B protein; 150 nM, 48 hours): 25%; % Reduction in secreted apolipoprotein B protein (apolipoprotein B protein; 300 nM, 24 hours): 10%; % Reduction in secreted apolipoprotein B protein (apolipoprotein B protein; 300 nM, 48 hours): 17%; % Inhibition of apolipoprotein B mRNA ([2]; 10 nM, 24 hours): 24%; % Inhibition of apolipoprotein B mRNA ([2]; 10 nM, 48 hours): 76%; % Inhibition of apolipoprotein B mRNA ([2]; 50 nM, 24 hours): 60%; % Inhibition of apolipoprotein B mRNA ([2]; 50 nM, 48 hours): 77%; % Inhibition of apolipoprotein B mRNA ([2]; 150 nM, 24 hours): 56%; % Inhibition of apolipoprotein B mRNA ([2]; 150 nM, 48 hours): 88%; % Inhibition of apolipoprotein B mRNA ([2]; 300 nM, 24 hours): 61%; % Inhibition of apolipoprotein B mRNA ([2]; 300 nM, 48 hours): 86%
ISIS 301012: SEQ ID NO: 247, antisense oligonucleotide targeted to human apolipoprotein B (antisense GCCTCAGTCTGCTTCGCACC; chemistry not given here) | remained close to those of saline | large increase | moderate increase | did not inhibit | – | – | – | – | – | – | – | – | – | – | – | – | secretion of apolipoprotein B protein (ELISA) (apolipoprotein B protein; 150 and 300 nM): decrease; inhibition of apolipoprotein B mRNA expression ([2]; cynomolgous monkey primary hepatocytes): in a dose- and time-dependent manner
281625 (antisense eA*eG*eG*eT*eT*dA*d[5mC]*d[5mC]*dA*dG*d[5mC]*d[5mC]*dA*d[5mC]*dA*eT*eG*e[5mC]*eA*eG) [compound 281625] | – | – | – | – | 21.2 IU/L | 40.8 IU/L | 31.8 IU/L | 75 IU/L | 30.8 IU/L | 44.4 IU/L | 210.4 IU/L | 152.4 IU/L | −9% | −23% | −34% | +32% | % Reduction of monkey apolipoprotein B protein secretion (apolipoprotein B protein; 50 nM (Table 47)): 6%; % Reduction of monkey apolipoprotein B protein secretion (apolipoprotein B protein; 150 nM (Table 47)): 13%; % Inhibition of apolipoprotein B mRNA ([2]; 10 nM, 24 hours (Table 46), "+" = expression increased): +5%; % Inhibition of apolipoprotein B mRNA ([2]; 50 nM, 24 hours (Table 46)): 41%; % Inhibition of apolipoprotein B mRNA ([2]; 150 nM, 24 hours (Table 46), "+" = expression increased): 35%; % Inhibition of apolipoprotein B mRNA ([2]; 300 nM, 24 hours (Table 46)): 69%
